According to the supplement of paper PMC10733146:

Tests used:
Assay in all cases: viability relative to DMSO control (fraction); higher = less drug effect (more viable cells)
Conditions in all cases: 48 h
[1] = tested on: primary ALL patient cells (S048)
Method in brief: (§1)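 Compounds were pre-plated at five concentrations, one well each, in 384-well plates, and primary mononuclear tumour cells were plated on them at 4 × 10^4 cells per well. The cells, fresh or cryopreserved, had been Ficoll-isolated from blood or bone marrow or taken from processed lymph node. After 48 h at 37 °C and 5% CO2 in RPMI-1640 with penicillin/streptomycin, L-glutamine and human serum, viability was read as CellTiter-Glo luminescence relative to the median of 16 inner DMSO wells.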

[2] = tested on: primary AML patient cells (S006)
Method in brief: as §1

[3] = tested on: primary AML patient cells (S009)
Method in brief: as §1

[4] = tested on: primary AML patient cells (S012)
Method in brief: as §1

[5] = tested on: primary AML patient cells (S037)
Method in brief: as §1

[6] = tested on: primary AML patient cells (S055)
Method in brief: as §1

[7] = tested on: primary AML patient cells (S056)
Method in brief: as §1

[8] = tested on: primary AML patient cells (S072)
Method in brief: as §1

[9] = tested on: primary AML patient cells (S079)
Method in brief: as §1

[10] = tested on: primary AML patient cells (S089)
Method in brief: as §1

[11] = tested on: primary AML patient cells (S091)
Method in brief: as §1

[12] = tested on: primary CLL patient cells (S031)
Method in brief: as §1

[13] = tested on: primary DLBCL patient cells (S082)
Method in brief: as §1

[14] = tested on: primary FL patient cells (S022)
Method in brief: as §1

[15] = tested on: primary FL patient cells (S087)
Method in brief: as §1

[16] = tested on: primary MCL patient cells (S041)
Method in brief: as §1

[17] = tested on: primary MCL patient cells (S053)
Method in brief: as §1

[18] = tested on: primary MCL patient cells (S063)
Method in brief: as §1

[19] = tested on: primary MCL patient cells (S068)
Method in brief: as §1

[20] = tested on: primary T-PLL patient cells (S008)
Method in brief: as §1

O=C1c2c(O)ccc(O)c2C(=O)c2c(NCCNCCO)ccc(NCCNCCO)c21 [Mitoxantrone]
viability ([1]; 0.008 µM): 0.449 | viability ([1]; 0.04 µM): 0.0767 | viability ([1]; 0.2 µM): 0.113 | viability ([1]; 1 µM): 0.0232 | viability ([1]; 5 µM): 0.0139 | viability ([2]; 0.008 µM): 0.426 | viability ([2]; 0.04 µM): 0.155 | viability ([2]; 0.2 µM): 0.0754 | viability ([2]; 1 µM): 0.0534 | viability ([2]; 5 µM): 0.0375 | viability ([3]; 0.008 µM): 0.788 | viability ([3]; 0.04 µM): 0.651 | viability ([3]; 0.2 µM): 0.517 | viability ([3]; 1 µM): 0.156 | viability ([3]; 5 µM): 0.0504 | viability ([4]; 0.008 µM): 0.991 | viability ([4]; 0.04 µM): 0.995 | viability ([4]; 0.2 µM): 0.978 | viability ([4]; 1 µM): 0.862 | viability ([4]; 5 µM): 0.0416 | viability ([5]; 0.008 µM): 0.843 | viability ([5]; 0.04 µM): 0.581 | viability ([5]; 0.2 µM): 0.447 | viability ([5]; 1 µM): 0.345 | viability ([5]; 5 µM): 0.211 | viability ([6]; 0.008 µM): 0.978 | viability ([6]; 0.04 µM): 0.869 | viability ([6]; 0.2 µM): 0.821 | viability ([6]; 1 µM): 0.729 | viability ([6]; 5 µM): 0.234 | viability ([7]; 0.008 µM): 0.397 | viability ([7]; 0.04 µM): 0.17 | viability ([7]; 0.2 µM): 0.128 | viability ([7]; 1 µM): 0.0823 | viability ([7]; 5 µM): 0.0488 | viability ([8]; 0.008 µM): 0.839 | viability ([8]; 0.04 µM): 0.715 | viability ([8]; 0.2 µM): 0.661 | viability ([8]; 1 µM): 0.152 | viability ([8]; 5 µM): 0.0445 | viability ([9]; 0.008 µM): 0.801 | viability ([9]; 0.04 µM): 0.655 | viability ([9]; 0.2 µM): 0.526 | viability ([9]; 1 µM): 0.133 | viability ([9]; 5 µM): 0.0172 | viability ([10]; 0.008 µM): 0.339 | viability ([10]; 0.04 µM): 0.966 | viability ([10]; 0.2 µM): 0.0966 | viability ([10]; 1 µM): 0.0273 | viability ([10]; 5 µM): 0.0313 | viability ([11]; 0.008 µM): 0.494 | viability ([11]; 0.04 µM): 0.563 | viability ([11]; 0.2 µM): 0.46 | viability ([11]; 1 µM): 0.118 | viability ([11]; 5 µM): 0.0676 | viability ([12]; 0.008 µM): 0.614 | viability ([12]; 0.04 µM): 0.383 | viability ([12]; 0.2 µM): 0.335 | viability ([12]; 1 µM): 0.0955 | viability ([12]; 5 µM): 0.0133 | viability ([13]; 0.008 µM): 0.886 | viability ([13]; 0.04 µM): 0.691 | viability ([13]; 0.2 µM): 0.541 | viability ([13]; 1 µM): 0.538 | viability ([13]; 5 µM): 0.0152 | viability ([14]; 0.008 µM): 0.953 | viability ([14]; 0.04 µM): 0.844 | viability ([14]; 0.2 µM): 0.804 | viability ([14]; 1 µM): 0.437 | viability ([14]; 5 µM): 0.229 | viability ([15]; 0.008 µM): 0.868 | viability ([15]; 0.04 µM): 0.763 | viability ([15]; 0.2 µM): 0.717 | viability ([15]; 1 µM): 0.548 | viability ([15]; 5 µM): 0.177 | viability ([16]; 0.008 µM): 0.985 | viability ([16]; 0.04 µM): 0.862 | viability ([16]; 0.2 µM): 0.569 | viability ([16]; 1 µM): 0.0728 | viability ([16]; 5 µM): 0.015 | viability ([17]; 0.008 µM): 0.452 | viability ([17]; 0.04 µM): 0.326 | viability ([17]; 0.2 µM): 0.363 | viability ([17]; 1 µM): 0.236 | viability ([17]; 5 µM): 0.169 | viability ([18]; 0.008 µM): 1.02 | viability ([18]; 0.04 µM): 0.812 | viability ([18]; 0.2 µM): 0.598 | viability ([18]; 1 µM): 0.246 | viability ([18]; 5 µM): 0.0145 | viability ([19]; 0.008 µM): 0.814 | viability ([19]; 0.04 µM): 0.596 | viability ([19]; 0.2 µM): 0.434 | viability ([19]; 1 µM): 0.0583 | viability ([19]; 5 µM): 0.0225 | viability ([20]; 0.008 µM): 1.02 | viability ([20]; 0.04 µM): 0.961 | viability ([20]; 0.2 µM): 0.502 | viability ([20]; 1 µM): 0.0553 | viability ([20]; 5 µM): 0.0424

COc1ccc(C2=N[C@@H](c3ccc(Cl)cc3)[C@@H](c3ccc(Cl)cc3)N2C(=O)N2CCNC(=O)C2)c(OC(C)C)c1 [Nutlin-3a]
viability ([1]; 0.032 µM): 0.97 | viability ([1]; 0.16 µM): 0.995 | viability ([1]; 0.8 µM): 0.881 | viability ([1]; 4 µM): 0.506 | viability ([1]; 20 µM): 0.056 | viability ([2]; 0.032 µM): 1.01 | viability ([2]; 0.16 µM): 0.917 | viability ([2]; 0.8 µM): 0.694 | viability ([2]; 4 µM): 0.136 | viability ([2]; 20 µM): 0.0568 | viability ([3]; 0.032 µM): 0.875 | viability ([3]; 0.16 µM): 0.89 | viability ([3]; 0.8 µM): 0.744 | viability ([3]; 4 µM): 0.621 | viability ([3]; 20 µM): 0.493 | viability ([4]; 0.032 µM): 0.945 | viability ([4]; 0.16 µM): 0.946 | viability ([4]; 0.8 µM): 1.03 | viability ([4]; 4 µM): 1.01 | viability ([4]; 20 µM): 0.883 | viability ([5]; 0.032 µM): 0.982 | viability ([5]; 0.16 µM): 0.974 | viability ([5]; 0.8 µM): 0.964 | viability ([5]; 4 µM): 0.742 | viability ([5]; 20 µM): 0.421 | viability ([6]; 0.032 µM): 1.03 | viability ([6]; 0.16 µM): 1.02 | viability ([6]; 0.8 µM): 0.977 | viability ([6]; 4 µM): 0.911 | viability ([6]; 20 µM): 0.306 | viability ([7]; 0.032 µM): 1.1 | viability ([7]; 0.16 µM): 1.07 | viability ([7]; 0.8 µM): 0.706 | viability ([7]; 4 µM): 0.425 | viability ([7]; 20 µM): 0.45 | viability ([8]; 0.032 µM): 1.04 | viability ([8]; 0.16 µM): 0.956 | viability ([8]; 0.8 µM): 0.875 | viability ([8]; 4 µM): 0.78 | viability ([8]; 20 µM): 0.693 | viability ([9]; 0.032 µM): 1.02 | viability ([9]; 0.16 µM): 1.01 | viability ([9]; 0.8 µM): 0.972 | viability ([9]; 4 µM): 0.868 | viability ([9]; 20 µM): 0.61 | viability ([10]; 0.032 µM): 1.07 | viability ([10]; 0.16 µM): 1.01 | viability ([10]; 0.8 µM): 1.01 | viability ([10]; 4 µM): 0.802 | viability ([10]; 20 µM): 0.511 | viability ([11]; 0.032 µM): 0.988 | viability ([11]; 0.16 µM): 0.84 | viability ([11]; 0.8 µM): 0.62 | viability ([11]; 4 µM): 0.404 | viability ([11]; 20 µM): 0.365 | viability ([12]; 0.032 µM): 0.869 | viability ([12]; 0.16 µM): 0.929 | viability ([12]; 0.8 µM): 0.8 | viability ([12]; 4 µM): 0.451 | viability ([12]; 20 µM): 0.089 | viability ([13]; 0.032 µM): 1.07 | viability ([13]; 0.16 µM): 1.02 | viability ([13]; 0.8 µM): 1.1 | viability ([13]; 4 µM): 1.04 | viability ([13]; 20 µM): 1.12 | viability ([14]; 0.032 µM): 0.954 | viability ([14]; 0.16 µM): 0.936 | viability ([14]; 0.8 µM): 1.02 | viability ([14]; 4 µM): 0.881 | viability ([14]; 20 µM): 0.621 | viability ([15]; 0.032 µM): 0.984 | viability ([15]; 0.16 µM): 0.964 | viability ([15]; 0.8 µM): 0.931 | viability ([15]; 4 µM): 0.816 | viability ([15]; 20 µM): 0.675 | viability ([16]; 0.032 µM): 0.988 | viability ([16]; 0.16 µM): 0.976 | viability ([16]; 0.8 µM): 0.921 | viability ([16]; 4 µM): 0.717 | viability ([16]; 20 µM): 0.34 | viability ([17]; 0.032 µM): 1.01 | viability ([17]; 0.16 µM): 0.896 | viability ([17]; 0.8 µM): 0.738 | viability ([17]; 4 µM): 0.433 | viability ([17]; 20 µM): 0.282 | viability ([18]; 0.032 µM): 0.998 | viability ([18]; 0.16 µM): 0.985 | viability ([18]; 0.8 µM): 0.984 | viability ([18]; 4 µM): 0.608 | viability ([18]; 20 µM): 0.215 | viability ([19]; 0.032 µM): 1.17 | viability ([19]; 0.16 µM): 0.988 | viability ([19]; 0.8 µM): 0.987 | viability ([19]; 4 µM): 0.929 | viability ([19]; 20 µM): 0.949 | viability ([20]; 0.032 µM): 1 | viability ([20]; 0.16 µM): 0.972 | viability ([20]; 0.8 µM): 0.963 | viability ([20]; 4 µM): 0.583 | viability ([20]; 20 µM): 0.205
